# Test results: patent US20230140290A1, “SALICYLAMIDE DERIVATIVES AND RELATED METHODS OF MAKING” (THE BOARD OF REGENTS OF THE UNIVERSITY OF TEXAS SY, priority 2020, published 2023)
# Counter-ions that a name gives are not always drawn.
# Assays:
# HAdV5-GFP = assay: Plaque assay (inhibition of HAdV plaque formation); type: cell-based, HAdV-5; conditions: for inhibition at 10 µM: read-out: Plaque Assay (%) Inhibition (10 μM); for IC50: read-out: Plaque Assay IC50 (μM), HAdV5-GFP, low MOI, 293β5 cell line; for Selectivity index (SI): ratio of CC50 to IC50 in plaque assay; for EC50: read-out: EC50 (plaque assay)
# Experimental: Plaque Assay. […] When cells reached 80-90% confluency, they were infected with HAdV5-GFP (0.06 vp/cell) and rocked for 2 h at 37° C. After the incubation the inoculum was removed, and the cells were washed once with PBS.
# Plaque Assay. Compounds were tested using low MOI infections (0.06 vp/cell) and at concentrations of 10 μM and in a dose-response assay ranging from 10 to 0.3 μM in a plaque assay. […] When cells reached 80-90% confluency, they were infected with HAdV5-GFP (0.06 vp/cell) and rocked for 2 h at 37° C. After the incubation the inoculum was removed, and the cells were washed once with PBS. […] The mixture also contained the compounds in concentrations ranging from 10 to 0.3 μM.
# A549 cells = assay: Cytotoxicity assay (AlamarBlue); conditions: read-out: CC50 (μM), cytotoxic concentration 50%; A549 cell line, 48 h
# Experimental: Cytotoxicity Assay. The cytotoxicity of the compounds was analyzed by commercial kit AlamarBlue® (Invitrogen, Ref. DAL1025). A549 cells at a density of 5×10^3 cells per well in 96-well plates were seeded. […] Cells were then incubated at 37° C. for 48 h following the kit protocol. The cytotoxic concentration 50 (CC50) value was obtained using the statistical package GraphPad Prism. This assay was performed in duplicate.
SMILES,inhibition at 10 µM (HAdV5-GFP),further results
"O=C(Nc1ccc([N+](=O)[O-])c(Cl)c1)c1cc(Cl)ccc1O [Compound 10, 5-Chloro-N-(3-chloro-4-nitrophenyl)-2-hydroxybenzamide]",100%,IC50 (HAdV5-GFP): 1 µM
"O=C(Nc1cc([N+](=O)[O-])ccc1F)c1cc(Cl)ccc1O [Compound 12, 5-Chloro-N-(2-fluoro-5-nitrophenyl)-2-hydroxybenzamide]",100%,CC50 (A549 cells): 8.1 ± 3.2 µM; Selectivity index (SI) (HAdV5-GFP): 26.2; IC50 (HAdV5-GFP): 0.31 µM
"O=C(Nc1ccc(F)c(F)c1)c1cc(Cl)ccc1O [Compound 15, 5-Chloro-N-(3,4-difluorophenyl)-2-hydroxybenzamide]",100%,CC50 (A549 cells): 8 µM; Selectivity index (SI) (HAdV5-GFP): 29.6; IC50 (HAdV5-GFP): 0.27 µM
"O=C(Nc1cc(C(F)(F)F)cc(C(F)(F)F)c1)c1cc(Cl)ccc1O [Compound 16, N-(3,5-Bis(trifluoromethyl)phenyl)-5-chloro-2-hydroxybenzamide]",100%,CC50 (A549 cells): 4.1 µM; Selectivity index (SI) (HAdV5-GFP): 68.3; IC50 (HAdV5-GFP): 0.06 µM
"O=C(Nc1cc(F)cc(C(F)(F)F)c1)c1ccccc1O [Compound 18, N-(3-Fluoro-5-(trifluoromethyl)phenyl)-2-hydroxybenzamide]",98.7 ± 1.9%,CC50 (A549 cells): 16.3 µM; IC50 (HAdV5-GFP): 1.07 µM
"Cc1ccc(O)c(C(=O)Nc2cc(F)cc(C(F)(F)F)c2)c1 [Compound 19, N-(3-Fluoro-5-(trifluoromethyl)phenyl)-2-hydroxy-5-methylbenzamide]",98 ± 2.8%,CC50 (A549 cells): 15.2 µM; IC50 (HAdV5-GFP): 0.65 µM
"O=C(Nc1cc(F)cc(C(F)(F)F)c1)c1cccc(Cl)c1 [Compound 21, 3-Chloro-N-(3-fluoro-5-(trifluoromethyl)phenyl)benzamide]",99.3 ± 0.9%,CC50 (A549 cells): 38.6 ± 1.7 µM; Selectivity index (SI) (HAdV5-GFP): 6.9; IC50 (HAdV5-GFP): 5.61 ± 0.37 µM
"O=C(NCc1ccc(F)cc1F)c1cc(Cl)ccc1O [Compound 33, 5-Chloro-N-(2,4-difluorobenzyl)-2-hydroxybenzamide]",74.7 ± 6.9%,–
"O=C(NCc1ccc(F)c(F)c1)c1cc(Cl)ccc1O [Compound 34, 5-Chloro-N-(3,4-difluorobenzyl)-2-hydroxybenzamide]",37.2 ± 23.4%,–
"O=C(NCc1cccc(Cl)c1)c1cc(Cl)ccc1O [Compound 39, 5-Chloro-N-(3-chlorobenzyl)-2-hydroxybenzamide]",72 ± 1.5%,–
"O=C(NCc1ccc(F)cc1)c1cc(Cl)ccc1O [Compound 40, 5-Chloro-N-(4-fluorobenzyl)-2-hydroxybenzamide]",72 ± 3%,–
"CN(Cc1ccc(F)cc1)C(=O)c1cc(Cl)ccc1O [Compound 41, 5-Chloro-N-(4-fluorobenzyl)-2-hydroxy-N-methylbenzamide]",0%,–
"O=C(NCc1ccccc1)c1cc(Cl)ccc1O [Compound 45, N-Benzyl-5-chloro-2-hydroxybenzamide]",12.7 ± 2.9%,–
"COc1ccc([C@@H](C)NC(=O)c2cc(Cl)ccc2O)cc1 [Compound 50, (R)-5-Chloro-2-hydroxy-N-(1-(4-methoxyphenyl)ethyl)benzamide]",33.5 ± 14.8%,–
"O=C(Cc1cc(Cl)ccc1O)Nc1ccc([N+](=O)[O-])cc1Cl [Compound 54, 2-(5-Chloro-2-hydroxyphenyl)-N-(2-chloro-4-nitrophenyl)acetamide]",0%,–
"CC(C)C[C@H](NC(=O)c1cc(Cl)ccc1O)C(=O)Nc1ccc([N+](=O)[O-])cc1Cl [Compound 61, (S)-5-Chloro-N-(1-((2-chloro-4-nitrophenyl)amino)-4-methyl-1-oxopentan-2-yl)-2-hydroxybenzamide]",17.4 ± 12.3%,–
"CSCC[C@H](NC(=O)c1cc(Cl)ccc1O)C(=O)Nc1ccc([N+](=O)[O-])cc1Cl [Compound 63, (S)-5-Chloro-N-(1-((2-chloro-4-nitrophenyl)amino)-4-(methylthio)-1-oxobutan-2-yl)-2-hydroxybenzamide]",34.8 ± 16.9%,–
"CC(C)[C@H](NC(=O)c1cc(Cl)ccc1O)C(=O)Nc1ccc(C(F)(F)F)cc1Cl [Compound 66, (S)-5-Chloro-N-(1-((2-chloro-4-(trifluoromethyl)phenyl)amino)-3-methyl-1-oxobutan-2-yl)-2-hydroxybenzamide]",24.8 ± 12.3%,–
"CS(=O)(=O)Nc1ccc(Cl)cc1C(=O)N[C@@H](Cc1ccccc1)C(=O)Nc1ccc([N+](=O)[O-])cc1Cl [Compound 71, (S)-5-Chloro-N-(1-((2-chloro-4-nitrophenyl)amino)-1-oxo-3-phenylpropan-2-yl)-2-(methylsulfonamido)benzamide]",88.9 ± 15.7%,–
"Nc1ccc(NC(=O)c2cc(Cl)ccc2O)c(Cl)c1 [Compound 76, N-(4-Amino-2-chlorophenyl)-5-chloro-2-hydroxybenzamide]",0%,–
"CC(=O)Nc1ccc(NC(=O)c2cc(Cl)ccc2O)c(Cl)c1 [Compound 77, N-(4-Acetylamino-2-chlorophenyl)-5-chloro-2-hydroxybenzamide]",0%,–

SMILES,inhibition at 10 µM (HAdV5-GFP),further results
"NCCNc1ccc(NC(=O)c2cc(Cl)ccc2O)c(Cl)c1 [Compound 123, N-(4-((2-Aminoethyl)amino)-2-chlorophenyl)-5-chloro-2-hydroxybenzamide hydrochloride]",19.4 ± 12.2%,–
"O=C(Nc1ccc(NC2CCNCC2)cc1Cl)c1cc(Cl)ccc1O [Compound 125, 5-Chloro-N-(2-chloro-4-(piperidin-4-ylamino)phenyl)-2-hydroxybenzamide hydrochloride]",39.7 ± 13.5%,–
"O=C(Nc1ccc(NCC2CCNCC2)cc1Cl)c1cc(Cl)ccc1O [Compound 127, 5-Chloro-N-(2-chloro-4-((piperidin-4-ylmethyl)amino)phenyl)-2-hydroxybenzamide]",20.6 ± 10.3%,–
"CN1CCC(CNc2ccc(NC(=O)c3cc(Cl)ccc3O)c(Cl)c2)CC1 [Compound 128, 5-Chloro-N-(2-chloro-4-(((1-methylpiperidin-4-yl)methyl)amino)phenyl)-2-hydroxybenzamide]",0%,–
"O=C(Nc1ccc(NCCN2CCOCC2)cc1Cl)c1cc(Cl)ccc1O [Compound 129, 5-Chloro-N-(2-chloro-4-((2-morpholinoethyl)amino)phenyl)-2-hydroxybenzamide]",1.4 ± 12.3%,–
"O=C(Nc1ccc(NC2CCCC2)cc1Cl)c1ccccc1O [Compound 135, N-(2-Chloro-4-(cyclopentylamino)phenyl)-2-hydroxybenzamide]",77.5%,–
"O=C(Nc1ccc(NC2CCCC2)cc1Cl)c1cccc(Cl)c1 [Compound 137, 3-Chloro-N-(2-chloro-4-(cyclopentylamino)phenyl)benzamide]",82.9%,–
"COc1ccc(Cl)cc1C(=O)Nc1ccc(NC2CCCC2)cc1Cl [Compound 138, 5-Chloro-N-(2-chloro-4-(cyclopentylamino)phenyl)-2-methoxybenzamide]",78.9%,–
"CN1CCC(Oc2ccc(Cl)cc2C(=O)Nc2ccc(NC3CCCC3)cc2Cl)CC1 [Compound 139, 5-Chloro-N-(2-chloro-4-(cyclopentylamino)phenyl)-2-((1-methylpiperidin-4-yl)oxy)benzamide]",0%,–
"O=C(Cc1cc(Cl)ccc1O)Nc1ccc(NC2CCCC2)cc1Cl [Compound 146, 2-(5-Chloro-2-hydroxyphenyl)-N-(2-chloro-4-(cyclopentylamino)phenyl)acetamide]",85.8 ± 5.8%,–
"O=C(NC1CCCCCC1)c1cc(Cl)ccc1O [Compound 158, 5-Chloro-N-cycloheptyl-2-hydroxybenzamide]",–,EC50 (HAdV5-GFP): 4.7 µM
"O=C(NC1CCOCC1)c1cc(Cl)ccc1O [Compound 159, 5-Chloro-2-hydroxy-N-(tetrahydro-2H-pyran-4-yl)benzamide]",0%,–
"C[C@H](NC(=O)c1cc(Cl)ccc1O)C1CCCCC1 [Compound 162, (S)-5-chloro-N-(1-cyclohexylethyl)-2-hydroxybenzamide]",100%,EC50 (HAdV5-GFP): 0.51 µM
"O=C(NCC1CCOCC1)c1cc(Cl)ccc1O [Compound 163, 5-Chloro-2-hydroxy-N-((tetrahydro-2H-pyran-4-yl)methyl)benzamide]",0%,–
"O=C(NCCC1CCCCC1)c1cc(Cl)ccc1O [Compound 165, 5-Chloro-N-(2-cyclohexylethyl)-2-hydroxybenzamide]",–,EC50 (HAdV5-GFP): 1 µM; IC50 (HAdV5-GFP): 1 ± 0.1 µM
"CN1CCN(CCNC(=O)c2cc(Cl)ccc2O)CC1 [Compound 167, 5-Chloro-2-hydroxy-N-(2-(4-methylpiperazin-1-yl)ethyl)benzamide]",0%,–
"O=C(NCCN1CCOCC1)c1cc(Cl)ccc1O [Compound 168, 5-Chloro-2-hydroxy-N-(2-morpholinoethyl)benzamide]",0%,EC50 (HAdV5-GFP): 3.73 µM
O=C(c1cc(Cl)ccc1O)N1CCCCC1 [Compound 171],–,"Plaque Assay (%) Inhibition (10 μM) (HAdV5-GFP; HAdV5-GFP, 10 μM, low MOI, 293β5 cell line): 0.00 ± 0.00%"
"CC(=O)N1CCN(C(=O)c2cc(Cl)ccc2O)CC1 [Compound 172, 1-(4-(5-Chloro-2-hydroxybenzoyl)piperazin-1-yl)ethanone]",0%,–
"CN1CCN(C(=O)c2cc(Cl)ccc2O)CC1 [Compound 173, (5-Chloro-2-hydroxyphenyl)(4-methylpiperazin-1-yl)methanone]",0%,–
